Drawing on ChEMBL document CHEMBL1129179, “Antimicrobial evaluation of 3,1-benzoxazin-4-ones, 3,1-benzothiazin-4-ones, 4-alkoxyquinazolin-2-carbonitriles and N-arylimino-1,2,3-dithiazoles” (1996), this text covers Ratio, MIC and MFC99 for 11 compounds.

Holding throughout (assay type): functional
Experiment [1] can be described thus: Ratio of MFC99/MIC for antifungal activity against Candida albicans ATCC 10231 strain was determined.
Experiment [2] is described as follows: Ratio of MFC99/MIC for antifungal activity against Cryptococcus neoformans DSM 70219 strain was determined.
For experiment [3], the system named is Candida tropicalis. In words: Minimum inhibitory concentration required for antifungal activity against Candida tropicalis DSM 1346 strain.
Experiment [4] in a line: Ratio of MFC99/MIC for antifungal activity against Candida glabrata DSM 6425 strain was determined.
The subject of experiment [5] is Candida albicans. In words: Minimum fungicidal concentration required for antifungal activity against Candida albicans ATCC 10231 strain.
For experiment [6], the system named is Nakaseomyces glabratus. In words: Minimum fungicidal concentration required for antifungal activity against Candida glabrata DSM 6425 strain.
In experiment [7] the test system is Cryptococcus neoformans. Briefly: Minimum inhibitory concentration required for antifungal activity against Cryptococcus neoformans DSM 70219 strain.
Experiment [8] relates to Candida albicans. In words: Minimum inhibitory concentration required for antifungal activity against Candida albicans ATCC 10231 strain.
The test system of experiment [9] is Nakaseomyces glabratus. In words: Minimum inhibitory concentration required for antifungal activity against Candida glabrata DSM 6425 strain.
For experiment [10], the system named is Cryptococcus neoformans. Briefly: Minimum fungicidal concentration required for antifungal activity against Cryptococcus neoformans DSM 70219 strain.
Experiment [11] concerns Pichia kudriavzevii. In words: Minimum fungicidal concentration required for antifungal activity against Issatchenkia orientalis DSM 6128 strain.
In experiment [12] the test system is Candida tropicalis. Briefly: Minimum fungicidal concentration required for antifungal activity against Candida tropicalis DSM 1346 strain.
Experiment [13] relates to Pichia kudriavzevii. Briefly: Minimum inhibitory concentration required for antifungal activity against Issatchenkia orientalis DSM 6128 strain.
The nature of experiment [14]: Ratio of MFC99/MIC for antifungal activity against Candida tropicalis DSM 1346 strain was determined.
Experiment [15] is described as follows: Ratio of MFC99/MIC for antifungal activity against Issatchenkia orientalis DSM 6128 strain was determined.

≈ marks a conversion by molar mass, not a printed value.

Broadly, the MIC is the lowest concentration found to suppress growth. High values mean a less susceptible organism, low ones a more susceptible organism. `Clc1nss/c1=N\c1ccc2c(c1)OCCO2`: the figures for the Ratio in experiment [1], in experiment [2] and in experiment [4] were 1.5, 1 and 3, respectively. The MIC against Candida tropicalis [3] is 48 µg/mL (≈ 167 µM); against Cryptococcus neoformans [7] it was 16 µg/mL (≈ 55.8 µM); in the experiment with Candida albicans [8], 32 µg/mL (≈ 112 µM); with Nakaseomyces glabratus [9] it was 16 µg/mL (≈ 55.8 µM); against Pichia kudriavzevii [13] it was 48 µg/mL (≈ 167 µM). The MFC99 against Candida albicans [5] was 48 µg/mL (≈ 167 µM); in the experiment with Nakaseomyces glabratus [6], 48 µg/mL (≈ 167 µM); against Cryptococcus neoformans [10], 16 µg/mL (≈ 55.8 µM); with Pichia kudriavzevii [11], above 48 µg/mL; in the experiment with Candida tropicalis [12], above 48 µg/mL.
As to `COc1ccc(/N=c2\ssnc2Cl)cc1`, the Ratio in experiment [1], in [2], in experiment [4], in [14] and in experiment [15] was 1 throughout. Besides, the MIC with Candida tropicalis [3] was 16 µg/mL (≈ 61.8 µM); in the experiment with Cryptococcus neoformans [7], 8 µg/mL (≈ 30.9 µM); against Candida albicans [8], 16 µg/mL (≈ 61.8 µM); against Nakaseomyces glabratus [9], 16 µg/mL (≈ 61.8 µM); against Pichia kudriavzevii [13], 16 µg/mL (≈ 61.8 µM). The MFC99 with Candida albicans [5] is 16 µg/mL (≈ 61.8 µM); in the experiment with Nakaseomyces glabratus [6], 16 µg/mL (≈ 61.8 µM); in the experiment on Cryptococcus neoformans [10], 8 µg/mL (≈ 30.9 µM); with Pichia kudriavzevii [11], 16 µg/mL (≈ 61.8 µM); with Candida tropicalis [12] it was 16 µg/mL (≈ 61.8 µM).
As for `COc1cc(C#N)c(/N=c2\ssnc2Cl)cc1OC`, the Ratio in [1] was 1; in experiment [2], 1; in experiment [4] it was 1.5; in experiment [15], 1.5. The MIC against Candida tropicalis [3] was 48 µg/mL (≈ 153 µM); with Cryptococcus neoformans [7] it was 32 µg/mL (≈ 102 µM); with Candida albicans [8] it was 32 µg/mL (≈ 102 µM); against Nakaseomyces glabratus [9] it was 32 µg/mL (≈ 102 µM); against Pichia kudriavzevii [13] it was 32 µg/mL (≈ 102 µM). Further, the MFC99 against Candida albicans [5] was 32 µg/mL (≈ 102 µM); in the experiment with Nakaseomyces glabratus [6] it was 48 µg/mL (≈ 153 µM); with Cryptococcus neoformans [10] it was 32 µg/mL (≈ 102 µM); against Pichia kudriavzevii [11], 48 µg/mL (≈ 153 µM); in the experiment on Candida tropicalis [12] it was above 48 µg/mL.
In the case of `COC(=O)c1ccccc1/N=c1\ssnc1Cl`, the Ratio in experiment [1] is 1; in experiment [2], 1; in experiment [4], 2; in experiment [14], 1; in experiment [15], 2. Also, the MIC against Candida tropicalis [3] is 16 µg/mL (≈ 55.8 µM); in the experiment with Cryptococcus neoformans [7], 32 µg/mL (≈ 112 µM); against Candida albicans [8], 16 µg/mL (≈ 55.8 µM); against Nakaseomyces glabratus [9], 16 µg/mL (≈ 55.8 µM); with Pichia kudriavzevii [13], 16 µg/mL (≈ 55.8 µM). The MFC99 was determined as 16 µg/mL (≈ 55.8 µM) in the experiment on Candida albicans [5]; 32 µg/mL (≈ 112 µM) with Nakaseomyces glabratus [6]; 32 µg/mL (≈ 112 µM) against Cryptococcus neoformans [10]; 32 µg/mL (≈ 112 µM) against Pichia kudriavzevii [11]; 16 µg/mL (≈ 55.8 µM) with Candida tropicalis [12].
As to `COc1ccccc1/N=c1\ssnc1Cl`, the Ratio in experiment [1] is given as 1; in [2] it was 2; in experiment [4] it was 1; in experiment [14] it was 1; in [15] it was 1. For the same compound, the MIC against Candida tropicalis [3] came out at 16 µg/mL (≈ 61.8 µM); with Cryptococcus neoformans [7], 8 µg/mL (≈ 30.9 µM); against Candida albicans [8], 16 µg/mL (≈ 61.8 µM); in the experiment on Nakaseomyces glabratus [9] it was 16 µg/mL (≈ 61.8 µM); in the experiment with Pichia kudriavzevii [13], 16 µg/mL (≈ 61.8 µM). Further, the MFC99 in the experiment with Candida albicans [5], in the experiment on Nakaseomyces glabratus [6], in the experiment with Cryptococcus neoformans [10], with Pichia kudriavzevii [11] and with Candida tropicalis [12] was 16 µg/mL (≈ 61.8 µM) in each case.
With `Nc1nc(=O)[nH]cc1F` [FLUCYTOSINE], the Ratio in experiment [2] was above 64; in [4], 5; in experiment [14] it was 5; in experiment [15], 4. Further, the MIC against Candida tropicalis [3] was found to be 0.1 µg/mL (≈ 0.775 µM); in the experiment with Cryptococcus neoformans [7], 2 µg/mL (≈ 15.5 µM); in the experiment with Candida albicans [8], 0.13 µg/mL (≈ 1.01 µM); against Nakaseomyces glabratus [9] it was 0.05 µg/mL (≈ 0.387 µM); in the experiment on Pichia kudriavzevii [13], 16 µg/mL (≈ 124 µM). The MFC99 against Candida albicans [5] is 4 µg/mL (≈ 31 µM); with Nakaseomyces glabratus [6] it was 0.25 µg/mL (≈ 1.94 µM); against Cryptococcus neoformans [10] it was above 128 µg/mL; against Pichia kudriavzevii [11] it was 64 µg/mL (≈ 496 µM); in the experiment on Candida tropicalis [12], 0.25 µg/mL (≈ 1.94 µM).
As to `C[C@@H]1[C@H](O)[C@@H](C)/C=C/C=C/C=C/C=C/C=C/C=C/C=C/[C@H](O[C@@H]2O[C@H](C)[C@@H](O)[C@H](N)[C@@H]2O)C[C@@H]2O[C@](O)(C[C@@H](O)C[C@@H](O)[C@H](O)CC[C@@H](O)C[C@@H](O)CC(=O)O[C@H]1C)C[C@H](O)[C@H]2C(=O)O` [AMPHOTERICIN B], the Ratio is 2 in experiment [1]; 3.8 in experiment [2]; 2 in [4]; 2 in experiment [14]; 2 in [15]. Further, the minimum inhibitory concentration (MIC) was found to be 1 µg/mL (≈ 1.08 µM) against Candida tropicalis [3]; 0.13 µg/mL (≈ 0.141 µM) with Cryptococcus neoformans [7]; 0.25 µg/mL (≈ 0.271 µM) in the experiment with Candida albicans [8]; 1 µg/mL (≈ 1.08 µM) against Nakaseomyces glabratus [9]; 0.5 µg/mL (≈ 0.541 µM) against Pichia kudriavzevii [13]. In addition, the MFC99 against Candida albicans [5] turned out to be 0.5 µg/mL (≈ 0.541 µM); against Nakaseomyces glabratus [6] it was 2 µg/mL (≈ 2.16 µM); in the experiment with Cryptococcus neoformans [10], 0.5 µg/mL (≈ 0.541 µM); in the experiment on Pichia kudriavzevii [11], 1 µg/mL (≈ 1.08 µM); in the experiment with Candida tropicalis [12], 2 µg/mL (≈ 2.16 µM).
Consider `OC(Cn1cncn1)(Cn1cncn1)c1ccc(F)cc1F` [FLUCONAZOLE], for which the Ratio in experiment [1] is listed as above 64; in [2], above 32; in experiment [4] it was above 32; in experiment [14] it was above 32; in [15], 4. In addition, the MIC in the experiment with Candida tropicalis [3] was determined as 4 µg/mL (≈ 13.1 µM); against Cryptococcus neoformans [7], 4 µg/mL (≈ 13.1 µM); with Candida albicans [8], 2 µg/mL (≈ 6.53 µM); against Nakaseomyces glabratus [9], 4 µg/mL (≈ 13.1 µM); with Pichia kudriavzevii [13], 16 µg/mL (≈ 52.2 µM). The MFC99 is above 128 µg/mL against Candida albicans [5]; above 128 µg/mL against Nakaseomyces glabratus [6]; above 128 µg/mL with Cryptococcus neoformans [10]; 64 µg/mL (≈ 209 µM) against Pichia kudriavzevii [11]; above 128 µg/mL against Candida tropicalis [12].
For the compound `COC(=O)c1cc(OC)c(OC)cc1/N=c1\ssnc1Cl`, the Ratio stood at 1.5 in experiment [1], 1.5 in [2], 3 in [4] and 1.5 in experiment [15]. Also, the MIC with Candida tropicalis [3] stood at 48 µg/mL (≈ 138 µM); against Cryptococcus neoformans [7], 32 µg/mL (≈ 92.3 µM); against Candida albicans [8] it was 32 µg/mL (≈ 92.3 µM); against Nakaseomyces glabratus [9], 16 µg/mL (≈ 46.1 µM); in the experiment with Pichia kudriavzevii [13] it was 32 µg/mL (≈ 92.3 µM). In addition, the MFC99 against Candida albicans [5] is 48 µg/mL (≈ 138 µM); in the experiment with Nakaseomyces glabratus [6], 48 µg/mL (≈ 138 µM); in the experiment with Cryptococcus neoformans [10], 48 µg/mL (≈ 138 µM); with Pichia kudriavzevii [11], 48 µg/mL (≈ 138 µM); with Candida tropicalis [12], above 48 µg/mL.
With `Clc1nss/c1=N\c1ccccc1`, the Ratio in experiment [1], in experiment [2], in experiment [4], in experiment [14] and in experiment [15] was 1 in each case. The MIC in the experiment on Candida tropicalis [3] came to 16 µg/mL (≈ 70 µM); against Cryptococcus neoformans [7], 8 µg/mL (≈ 35 µM); with Candida albicans [8], 16 µg/mL (≈ 70 µM); in the experiment on Nakaseomyces glabratus [9] it was 16 µg/mL (≈ 70 µM); in the experiment on Pichia kudriavzevii [13] it was 16 µg/mL (≈ 70 µM). Also, the MFC99 was 16 µg/mL (≈ 70 µM) in the experiment with Candida albicans [5]; 16 µg/mL (≈ 70 µM) in the experiment with Nakaseomyces glabratus [6]; 8 µg/mL (≈ 35 µM) against Cryptococcus neoformans [10]; 16 µg/mL (≈ 70 µM) against Pichia kudriavzevii [11]; 16 µg/mL (≈ 70 µM) against Candida tropicalis [12].
Take `COc1cc(/N=c2\ssnc2Cl)cc(OC)c1OC`: the Ratio was found to be 1 in [1]; 2 in experiment [2]; 1 in experiment [4]; 2 in experiment [14]; 2 in experiment [15]. For the same compound, the MIC in the experiment with Candida tropicalis [3], with Cryptococcus neoformans [7], in the experiment on Candida albicans [8], with Nakaseomyces glabratus [9] and against Pichia kudriavzevii [13] was 16 µg/mL (≈ 50.2 µM) each time. Also, the MFC99 was determined as 16 µg/mL (≈ 50.2 µM) in the experiment with Candida albicans [5]; 16 µg/mL (≈ 50.2 µM) against Nakaseomyces glabratus [6]; 32 µg/mL (≈ 100 µM) in the experiment on Cryptococcus neoformans [10]; 32 µg/mL (≈ 100 µM) against Pichia kudriavzevii [11]; 32 µg/mL (≈ 100 µM) against Candida tropicalis [12].
